{
  "source": "patent US20030166715A1",
  "about": "“Use of vitaletheine modulators in the prophylaxis and treatment of disease” (priority 1990, published 2003)",
  "key": {"[1]": {"tested_on": "Cloudman S-91 murine melanoma cells", "experiment": "Treatment of murine Cloudman S-91 melanoma in mice, tumor volume", "assay_type": "in vivo, mouse", "procedure": "This regimen is predicated on the observation that certain enzymes thought to be responsive to these compounds, and which may pay a role in the reported results, are induced 48 hours after chemical stimulation. […] Data presented is calculated from measured tumor diameters, including mice with no tumor. Error bars indicate standard error of the mean.\nCloudman S-91 murine melanoma cells (American Type Culture Collection #53.1, Clone M-3) from a (C X DBA)F1 male mouse were grown in 75 ml flasks (Corning Glass Works, Corning, N.Y., USA) containing Ham's F12 medium supplemented with 15% fetal bovine serum, penicillin (100 U/ml), and streptomycin (100 μg/ml), all commercially available from Sigma Chemical Company, St. Louis, Mo., USA. Cultures were incubated at 37° C. under 5.5% carbon dioxide initially at 6×10^6 cells per ml for two days, with a medium change after one day. Cultures were then trypsinized, split into two fresh flasks at one half the cell density, above, and maintained for one week prior to injection in female (DBA X BALB c) mice (CD2F1/Hsd from Harlan Sprague Dawley, Inc., Indianapolis, Ind., USA). For inoculation, cells were first trypsinized, washed 3 times in phosphate buffered saline, and diluted to 1×10^5 cells/100 μl phosphate buffered saline prior to subcutaneous injection in the flank.\nThe compounds were dissolved in water, filtered through an appropriate sterilizing filter (0.22 μm non-pyrogenic, μ Star LB™ from Costar®, Cambridge, Mass., USA), diluted to the desired concentration in sterile, physiological saline (0.1 ml), and injected intraperitoneally with a 27 gauge, ⅜ inch allergy syringe (Becton Dickinson, Rutherford, N.J., USA); by gently lifting the skin on the abdomen of supine mice and injecting horizontally, puncture of peritoneal organs is avoided, thereby minimizing trauma to the mice."}, "[2]": {"tested_on": "CFU-E progenitors", "experiment": "Modulation of erythropoiesis: colony formation from CFU-E progenitors in plasma clot culture", "assay_type": "cell-based, murine", "details": "depending upon concentration (FIG. 3a)", "excerpt": "(§1) Colony formation from the early murine progenitors not exposed to vitalethine, and either initially exposed to or initially deprived of erythropoietin are represented by upper and lower triangles, respectively. […] Bars are standard error of the mean.\n(§2) Human bone marrow cells were obtained as surplus from experiments performed on material aspirated from normal volunteers with IRB approval and informed written consent. Peripheral blood cells were obtained from commercially purchased buffy coats or surgical waste (umbilical cord blood). Mouse bone marrow was flushed from femurs and obtained as surplus from experiments performed on C57B1/6 mice with animal committee approval. Human light density cells were separated by centrifugation over Ficoll-daitrizoate (SG 1.075) and depleted of adherent cells by incubation on serum coated plastic. Mouse cells were used without further fractionation. […] One unit per ml of erythropoietin and medium without added factors served as positive and negative controls. Initial incubations were carried out for 18 hours at 37° . […]"}, "[3]": {"tested_on": "CFU-E and BFU-E", "experiment": "Modulation of erythropoiesis: stimulation of colony formation synergistically with erythropoietin (FIG. 3a/3b)", "assay_type": "cell-based", "excerpt": "as §1, §2"}, "[4]": {"tested_on": "human BFU-E", "experiment": "Modulation of erythropoiesis: colony formation from human BFU-E in plasma clot culture", "assay_type": "cell-based", "details": "18 h initial incubation with vitalethine; compared with levels initially containing erythropoietin (FIG. 3a)", "excerpt": "as §1, §2"}},
  "data": [
    {"smiles": "O=C(O)NCCC(=O)NCCSSCCNC(=O)CCNC(=O)O", "note": "[vitalethine, N,N′-(dithiodi-2,1-ethanediyl)-bis-(3-carboxyamino-propan-amide)]", "values": [
      {"measurement": "average tumor volume", "setting": "[1]; 100 pg/kg mouse (FIG. 1b)", "value": "diminishes average tumor volume substantially"},
      {"measurement": "diminution of tumor volume compared to saline controls", "setting": "[1]; 10 femtogram/kg mouse intraperitoneally three times per week, beginning second day after tumor inoculation", "value": "~70", "unit": "%"},
      {"measurement": "average tumor volume", "setting": "[1]; 10 fg/kg mouse (FIG. 1a)", "value": "diminishes average tumor volume substantially"},
      {"measurement": "erythropoiesis from the CFU-E progenitors", "setting": "[2]", "value": "either enhances or minimizes erythropoiesis"},
      {"measurement": "concentration necessary for a similar response (stimulation of colony formation)", "setting": "[3]", "value": "about 10 pg/ml"},
      {"measurement": "colony formation from human BFU-E initially deprived of erythropoietin", "setting": "[4]", "value": "increased"}
    ]}
  ]
}
